Assay results published in the supplement of paper PMC10307832.

Tests used:
Experiment in all cases: relative viability (nuclei count vs DMSO), 5 days (fraction); higher = more cells survive
[1] = compound: CC1=CC(=NN1)NC2=CC(=NC(=N2)/C=C/C3=CC=CC=C3)N4CCN(CC4)C + O=C(c1cc(Cc2n[nH]c(=O)c3ccccc23)ccc1F)N1CCN(C(=O)C2CC2)CC1 [Olaparib] (partner 8 µM)
Outline: (§1)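 Nuclei were stained with Hoechst during a one-step fixation (final 0.05% Triton X-100, 1% formaldehyde, 1 ug/ml Hoechst) carried out 5 days after dosing, then counted on 4× images. The cells, lung cancer lines in 1536-well plates, had been dosed by pin tool the day after seeding with one drug alone or a fixed anchor-drug dose plus five library-drug doses (not always all listed) in √10 steps. Relative viability is the nuclei count in treated wells divided by that in vehicle wells, and each value is the median of duplicate plates.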

[2] = compound: CC1=CC(=NN1)NC2=CC(=NC(=N2)/C=C/C3=CC=CC=C3)N4CCN(CC4)C + Cc1cc(Nc2cc(N3CCN(C)CC3)nc(Sc3ccc(NC(=O)C4CC4)cc3)n2)n[nH]1 [Tozasertib] (partner 0.1 µM)
Outline: as §1

Bortezomib + Tozasertib = compound: CC(C)C[C@H](NC(=O)[C@H](Cc1ccccc1)NC(=O)c1cnccn1)B(O)O [Bortezomib] + Cc1cc(Nc2cc(N3CCN(C)CC3)nc(Sc3ccc(NC(=O)C4CC4)cc3)n2)n[nH]1 [Tozasertib] (partner 0.1 µM)
Outline: as §1

Obatoclax + Trametinib = compound: COC1=CC(c2cc3ccccc3[nH]2)=N/C1=C\c1[nH]c(C)cc1C [Obatoclax] + CC(=O)Nc1cccc(-n2c(=O)n(C3CC3)c(=O)c3c(Nc4ccc(I)cc4F)n(C)c(=O)c(C)c32)c1 [Trametinib] (partner 0.02 µM)
Outline: as §1

Cell Line | relative viability ([1]; first compound 0.08 µM) | relative viability ([1]; first compound 0.253 µM) | relative viability ([1]; first compound 0.8 µM) | relative viability ([1]; first compound 2.53 µM) | relative viability ([1]; first compound 8 µM) | relative viability ([2]; first compound 0.08 µM) | relative viability ([2]; first compound 0.253 µM) | relative viability ([2]; first compound 0.8 µM) | relative viability ([2]; first compound 2.53 µM) | relative viability ([2]; first compound 8 µM) | relative viability (Bortezomib + Tozasertib; first compound 0.0002 µM) | relative viability (Bortezomib + Tozasertib; first compound 0.000632 µM) | relative viability (Bortezomib + Tozasertib; first compound 0.002 µM) | relative viability (Bortezomib + Tozasertib; first compound 0.006325 µM) | relative viability (Bortezomib + Tozasertib; first compound 0.02 µM) | relative viability (Obatoclax + Trametinib; first compound 0.01 µM) | relative viability (Obatoclax + Trametinib; first compound 0.03162 µM) | relative viability (Obatoclax + Trametinib; first compound 0.1 µM) | relative viability (Obatoclax + Trametinib; first compound 0.3162 µM) | relative viability (Obatoclax + Trametinib; first compound 1 µM)
201T | 0.838 | 0.837 | 0.828 | 0.819 | 0.487 | 0.973 | 0.916 | 0.746 | 0.388 | 0.25 | 0.863 | 0.968 | 1.01 | 0.715 | 0.278 | 0.713 | 0.737 | 0.776 | 0.722 | 0.752
A549 | 0.292 | 0.529 | 0.287 | 0.156 | 0.0245 | – | – | – | – | – | – | – | – | – | – | – | – | – | – | –
A-427 | 0.815 | 0.774 | 0.913 | 0.468 | 0.158 | 0.212 | 0.136 | 0.178 | 0.0979 | 0.0938 | 0.212 | 0.263 | 0.193 | 0.105 | 0.102 | 0.785 | 0.689 | 0.849 | 0.729 | 0.621
ABC-1 | 0.904 | 0.946 | 1.01 | 0.647 | 0.324 | 0.191 | 0.164 | 0.191 | 0.207 | 0.182 | 0.162 | 0.213 | 0.181 | 0.16 | 0.226 | – | – | – | – | –
BEN | 0.985 | 1.17 | 0.987 | 0.606 | 0.275 | 0.492 | 0.533 | 0.451 | 0.364 | 0.38 | 0.496 | 0.554 | 0.449 | 0.511 | 0.362 | 1.01 | 1.01 | 0.861 | 0.944 | 1.03
CAL-12T | 0.714 | 0.741 | 0.714 | 0.238 | 0.237 | 0.25 | 0.303 | 0.251 | 0.172 | 0.143 | 0.322 | 0.285 | 0.358 | 0.193 | 0.106 | 0.337 | 0.431 | 0.47 | 0.246 | 0.14
COR-L23 | 0.335 | 0.339 | 0.32 | 0.126 | 0.0705 | 0.163 | 0.182 | 0.148 | 0.1 | 0.0908 | 0.198 | 0.198 | 0.153 | 0.049 | 0.0491 | 0.541 | 0.607 | 0.44 | 0.252 | 0.194
COR-L 105 | 0.591 | 0.688 | 0.691 | 0.658 | 0.27 | 0.372 | 0.304 | 0.348 | 0.248 | 0.246 | 0.357 | 0.345 | 0.216 | 0.254 | 0.19 | 0.44 | 0.434 | 0.493 | 0.4 | 0.373
Calu-6 | 0.577 | 0.558 | 0.469 | 0.289 | 0.0899 | – | – | – | – | – | – | – | – | – | – | – | – | – | – | –
ChaGo-K-1 | 0.371 | 0.42 | 0.38 | 0.234 | 0.148 | 0.222 | 0.227 | 0.217 | 0.195 | 0.172 | 0.233 | 0.207 | 0.248 | 0.165 | 0.155 | 0.951 | 0.846 | 0.869 | 0.894 | 0.878
EBC-1 | 0.631 | 0.753 | 0.7 | 0.46 | 0.114 | – | – | – | – | – | – | – | – | – | – | – | – | – | – | –
EKVX | 0.779 | 0.804 | 0.904 | 0.695 | 0.157 | 0.396 | 0.451 | 0.383 | 0.196 | 0.104 | 0.419 | 0.437 | 0.342 | 0.2 | 0.105 | 0.321 | – | 0.464 | 0.307 | 0.292
EMC-BAC-2 | 0.465 | 0.521 | 0.445 | 0.341 | 0.197 | 0.282 | 0.249 | 0.254 | 0.234 | 0.149 | 0.249 | 0.274 | 0.403 | 0.171 | 0.174 | 0.959 | 0.937 | – | 0.89 | 0.557
EPLC-272H | 0.725 | 0.901 | 0.496 | 0.12 | 0.0643 | 0.34 | 0.203 | 0.273 | 0.113 | 0.122 | 0.297 | 0.258 | 0.221 | 0.1 | 0.101 | 0.306 | 0.301 | 0.352 | 0.252 | 0.301
H3255 | 0.553 | 0.568 | 0.599 | 0.575 | 0.326 | 0.79 | 0.71 | 0.374 | 0.513 | 0.297 | 0.783 | 0.589 | 0.564 | 0.184 | 0.243 | 0.561 | 0.629 | – | 0.631 | 0.615
HARA | 0.617 | 1.01 | 0.582 | 0.121 | 0.099 | 0.111 | 0.108 | 0.11 | 0.0787 | 0.0585 | 0.0998 | 0.0941 | 0.0961 | 0.0503 | 0.061 | 0.658 | 0.926 | 0.83 | 0.768 | 0.705
HCC-15 | 0.748 | 0.611 | 0.718 | 0.298 | 0.113 | 0.291 | 0.355 | 0.18 | 0.0787 | 0.0703 | 0.372 | 0.45 | 0.405 | 0.0716 | 0.0808 | 0.43 | 0.297 | 0.401 | 0.353 | 0.411
HCC-44 | 0.974 | 1.01 | 0.956 | 0.965 | 0.759 | 0.83 | 1.05 | 0.67 | 0.268 | 0.146 | 0.887 | – | 0.305 | 0.161 | 0.221 | 1.09 | 1.02 | 0.989 | 1.1 | 0.994
